From patent US6562819B2, “Compounds for inhibition of ceramide-mediated signal transduction” (The Regents of the University of California, priority 1994, dated 2003) come the findings set out here.

For series [1], the system named is TNF-α production. The experiment in a line: ELISA for TNF-α production by LPS stimulated human monocytes. The following applies: Concentration of compound which inhibited the product of TNFα by 50% of control, read-out: TNFαIC50. Type of series: cell-based. The procedure: Peripheral blood mononuclear cells were isolated from normal human blood on Hypaque-Ficoll density gradients. A portion of the isolated cells were further purified by adherence to gelatin coated flasks.
100 μl aliquots of monocytes were placed onto 96 well microtiter plates at a density of 5×10^5 cells/ml in RPMI-1640 medium containing 10% fetal bovine serum. After incubation for 24 hrs., various concentrations of the test compounds (FIG. 5) were added to the plated cells in a volume of 100 μl and incubated for 1 hr. After incubation, 1 μg/ml of LPS was added to each well.
18 hrs. after exposure of the plated cells to LPS, 100 μl of medium was collected from each well and assayed (by ELISA) for release of TNF-α, using recombinant human TNF as a standard. The sensitivity of the assay ranged from 10-100 pg/ml.
A general note: In an ELISA, binding on a coated surface is turned into a signal by an enzyme label.

Series [2] deals with TNF-α production. The series can be described thus: LPS induced TNF-α production by human macrophages. The following applies: 0.1-1000 μM; result in words. Type of series: cell-based. As to the method: Human macrophages were cultured in 96 well microtiter plates and incubated with LPS. μAliquots of the stimulated cells were then incubated with, respectively, 0.1, 1, 10, 100 or 1000 μM of 1I-49, compound 37 and a commercially available isoquinoline (6,7-dimethoxy-1(2H)-isoquinoline from μAldrich Chemical; labelled S52-626-6 in FIG. 10) which, like the compounds of the invention, has an oxygen ortho to a ring nitrogen but, unlike the compounds of the invention, lacks a side chain substituent as described above (1L-49 is representative of the isoquinolone compounds of the invention having the side chain substituents described elsewhere above). The inhibitory efficacy of each compound was measured as a function of TNF-α reduction in μg/ml.

Like-named read-outs stand apart in the source and are kept apart here.

What is called melting point is the temperature, or range, at which the solid turns liquid. Consider `CCCCCCn1c(=O)c2[nH]c(=O)[nH]c2n(C)c1=O` [Compound 24, 1-n-Hexyl-3-methyluric Acid], for which the melting point was > 295 °C (dec.). For the same compound, in series [1] (Monocyte), the IC50 was 50 µM.

In turn, `Cn1c(=O)[nH]c(=O)c2[nH]c(S)nc21` [Compound 25, 3-Methyl-8-thiouric Acid] showed a melting point greater than 320 °C. Also, the IC50 in series [1] (Monocyte) was greater than 200 µM.

For the compound `CCCn1c(=O)n(CCCC(=O)OCC)c(=O)c2c1ncn2C` [Compound 31, ethyl 4-(2,3,6,7-tetrahydro-2,6-dioxo-7-methyl-3-n-propyl-1H-purin-1-yl)butonoic acid], in series [1], the IC50 is 5 µM.

For `CCOC(=O)CCCn1c(=O)c2ccccc2n(C)c1=O` [Compound 52, Ethyl 1-Methyl-1,4-dihydro-2,4-dioxo-3(2H)-quinazolinebutanoate], the IC50 in series [1] (Monocyte) was found to be 55 µM.

For `COc1cc2cc[nH]c(=O)c2cc1OC` [S52, 626-6, 6,7-dimethoxy-1(2H)-isoquinoline], in series [2], the “inhibition of LPS induced TNF-α production” value was “mild inhibitory activity”.
